Measurements: patent US5656629A, “6-substituted pyrazolo (3,4-d)pyrimidin-4-ones and compositions and methods of use thereof” (Sanofi Winthrop, Inc., priority 1995, dated 1997)

Experiments:
[1] = test system: Spontaneously hypertensive rats; test: reversal of nitroglycerin-induced tolerance in spontaneously hypertensive rats; format: in vivo, Spontaneously hypertensive rats (17-25 weeks of age); details: for Percent (%) Reversal of Nitroglycerin-induced Tolerance: iv pretreatment 5-10 min before nitroglycerin challenge
Protocol: Spontaneously hypertensive rats (17-25 weeks of age) were made nitroglycerin tolerant by repeated administration of high doses of nitroglycerin (100 mg/kg, s.c., 3 times/day for 3 consecutive days). To confirm tolerance challenge doses of nitroglycerin were administered intravenously at doses ranging from 1-300 μg/kg and the maximum change in mean arterial pressure (MAP) for each dose was recorded. Groups of tolerant rats were pretreated with the compounds of the invention (tolerant pretreated group) or with vehicle (0.05N NaOH) (tolerant vehicle pretreated group) intravenously 5-10 minutes prior to administration of challenge doses of nitroglycerin. The administration of challenge doses of nitroglycerin to non-tolerant rats (the non-tolerant group) caused a dose-dependent decrease in MAP of between 10 to 40 mm Hg. […] The area under the dose-MAP curve was calculated for the non-tolerant group and for the tolerant vehicle pretreated group and the tolerant pretreated group. The percent reversal of nitrate-inducedtolerance was calculated as follows:
Percent Reversal=(AUCtol-pretreated -AUCtol-veh)/(AUCnontol
wherein: AUCnontol =the area under the dose-MAP curve for the non-tolerant group.
AUCtol-veh =the area under the dose-MAP curve for the tolerant vehicle pretreated group.
AUCtol-pretreated =the area under the dose-MAP curve for the tolerant pretreated group.
The following table summarizes the results obtained from the testing of representative compounds of the invention.

[2] = test system: Spontaneously hypertensive rats (SHR); test: antihypertensive activity in conscious spontaneously hypertensive rats (mean arterial pressure); format: in vivo; details: Rattus norvegicus, SHR iv; for ED25: 5 min, 5 min after dose, cumulative dosing, read-out: ED25, change in mean arterial pressure
Protocol: After a 2 day recovery from surgery, three baseline blood pressure measurements were made at 5 min intervals in conscious SHR. Compounds to be tested or vehicle were then administered intravenously in a dose-dependent manner (0.3-10 mg base/kg) while arterial pressure was recorded continuously on a polygraph. The mean arterial pressure response was measured 5 minutes after the administration of each dose of the test compound and the next dose given in a cumulative dose fashion. The response to each dose of the test compound was calculated as the difference from the mean of the three baseline measurements.

cGMP-PDE V = target: T1, cGMP-PDE V (Homo sapiens, UniProt O76074); test: cGMP-PDE V inhibition (isozyme isolated from cardiovascular tissue); format: biochemical, various animal species and man
T1 construct: isolated from cardiovascular tissues (heart and aorta); from tissue; host or cells: cardiovascular tissues (heart and aorta)
Excerpt: The cGMP-PDE and other PDE isozymes were isolated from cardiovascular tissues (heart and aorta) of various animal species and man by anion-exchange and affinity chromatography as described by Silver et al., Sec. Messeng. Phos. […] Cyclic Nucleotide Res. 10:69-92.

[3] = test system: Spontaneously hypertensive rats (SHR); test: antihypertensive activity in conscious spontaneously hypertensive rats (mean arterial pressure); format: in vivo; details: Rattus norvegicus

Compound | Percent (%) Reversal of Nitroglycerin-induced Tolerance ([1]; Dose 1.0 mg/kg) | ED25 [2] | change in vivo at 10 mg/kg [2] | IC50 (cGMP-PDE V) | other results
CCc1[nH]n(C2CCCC2)c2nc(Cc3ccc(OC)cc3)nc(=O)c1-2 [Example 6, 1-cyclopentyl-3-ethyl-6-(4-methoxyphenylmethyl)pyrazolo[3,4-d]pyrimidin-4-one] | 69% | 8.4 mg/kg | -30% | 23 nM | Percent (%) Reversal of Nitroglycerin-induced Tolerance ([1]; Dose 3.0 mg/kg): 140%
O=[N+]([O-])OCC(CO[N+](=O)[O-])O[N+](=O)[O-] [nitroglycerin, reference compound] |  |  |  |  | hypotensive response to nitroglycerin challenge ([1]; tolerant vehicle pretreated group, 1-300 μg/kg iv): significant reduction of the hypotensive response
CCc1nn(C2CCCC2)c2nc(Cc3ccccc3)[nH]c(=O)c12 [1(b), 1-cyclopentyl-3-ethyl-6-(phenylmethyl)-pyrazolo[3,4-d]pyrimdin-4-one] |  |  |  | 10 nM | change in vivo at 1 mg/kg ([2]; 1 mg/kg): -15%; change in vivo at 30 mg/kg ([3]; SHR iv, 30 mg/kg): -29%
CCc1[nH]n(C2CCCC2)c2nc(Cc3ccc(N)cc3)nc(=O)c1-2 [Example 26, 1-cyclopentyl-3-ethyl-6-(4-aminophenylmethyl)pyrazolo[3,4-d]pyrimidin-4-one] |  | 4.2 mg/kg | -46% | 8.7 nM | change in vivo at 10 mg/kg ([3]; SHR, 10 mg/kg, po): -56%
CCc1[nH]n(C2CCCC2)c2nc(Cc3ccc(O)cc3)nc(=O)c1-2 [Example 7, 1-cyclopentyl-3-ethyl-6-(4-hydroxyphenylmethyl)pyrazolo[3,4-d]pyrimidin-4-one] | 45% | 4.6 mg/kg |  | 19 nM | Percent (%) Reversal of Nitroglycerin-induced Tolerance ([1]; Dose 0.3 mg/kg): 46%
